Holding throughout (format): cell-based
One series has as its system Normal lung cells WI-38. Briefly: CCK (cell counting kit) cytotoxicity assay, WI-38. To be noted: WI-38 cell; anticancer drug alone vs protein nanoparticle conjugate, from IC50. The procedure: (§1) Normal lung cells WI-38 and IMR-90, and normal colon cells CCD-18co were grown in 96-well microplate with 1×10^4 cells/well for 36 hours, and the cytotoxicity when only anticancer drug was added and the cytotoxicity when protein nanoparticle-anticancer drug conjugate was added were compared.

For the next series, the system named is Normal lung cells IMR-90. The experiment in a line: CCK (cell counting kit) cytotoxicity assay, IMR-90. Particulars: IMR-90 cell; anticancer drug alone vs protein nanoparticle conjugate, from IC50. How it is done:
as §1

Series [1] deals with normal colon cells CCD-18co. The experiment in a line: CCK (cell counting kit) cytotoxicity assay, CCD-18co. To be noted: CCD-18co cell; anticancer drug alone vs protein nanoparticle conjugate, from IC50. How it is done:
as §1
A general note: Tetrazolium dyes change colour on reduction, which living cells bring about.

Each structure is given as a SMILES string.

The record followed here is patent publication US20240374744A1, “PROTEIN AND PHARMACEUTICAL COMPOSITION COMPRISING SAME FOR PREVENTION OR TREATMENT OF CANCER” (CELLEMEDY CO., LTD, priority 2021, published 2024).

Regarding `COc1cccc2c1C(=O)c1c(O)c3c(c(O)c1C2=O)C[C@@](O)(C(=O)CO)C[C@@H]3O[C@H]1C[C@H](N)[C@H](O)[C@H](C)O1` [DOX, doxorubicin], the results for the “drug toxicity reduction (DTR)” value (in the series with Normal lung cells WI-38; in the series with Normal lung cells IMR-90; in series [1]) were 263, 316 and 91, respectively.
On the same counts, the results for `Nc1ccn([C@@H]2O[C@H](CO)[C@@H](O)C2(F)F)c(=O)n1` [GEM, gemcitabine] are 3162, 7244 and 8913.
